This is an account of results in ChEMBL document CHEMBL1201862, “PubChem BioAssay data set” (2004).

SMILES strings stand for the structures.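 Results reflect a 48-hour exposure of cells in 96-well plates to compound at five concentrations. GI50 = concentration required for 50% inhibition of growth.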 The source made the active and inactive calls. Rule as the data show it: active = GI50 up to about 1.1 µM and inactive = higher.

Holding throughout (experiment): NCI tumour cell line growth inhibition, 48 h
Assay [1] has as its system ACHN.
Assay [2] has as its system BT-549.
The test system of assay [3] is CAKI-1.
The test system of assay [4] is EKVX.
In assay [5] the test system is HCT-15.
Assay [6] deals with HT-29.
Assay [7] concerns Hs-578T.
Assay [8] deals with MDA-MB-231.
The subject of assay [9] is MDA-MB-435.
For assay [10], the system named is NCI-H226.
Assay [11] relates to NCI-H460.
For assay [12], the system named is OVCAR-5.
Assay [13] concerns OVCAR-8.
The subject of assay [14] is RPMI-8226.
Assay [15] concerns SK-MEL-2.
Assay [16] has as its system SNB-19.
In assay [17] the test system is T47D.
For assay [18], the system named is TK-10.
In assay [19] the test system is UACC-257.
The test system of assay [20] is UACC-62.

Regarding `CC(=O)O[C@H]1C(=O)[C@@]2(C)[C@H]([C@H](OC(=O)c3ccoc3)[C@]3(O)C[C@H](OC(=O)[C@H](O)[C@@H](NC(=O)c4ccccc4)c4ccccc4)C(C)=C1C3(C)C)[C@]1(OC(C)=O)CO[C@@H]1C[C@@H]2O`, the GI50 is 2.1 µM (inactive) in assay [1]; 0.615 µM (active) in [2]; 8.18 µM (inactive) in assay [3]; > 9.59 µM (inactive) in assay [4]; 4.24 µM in assay [5]; 0.0307 µM (active) in assay [6]. The GI50 in assay [7] was 0.0249 µM (active); in assay [8], 3.05 µM (inactive); in assay [9], 0.00456 µM (active); in assay [10], 0.11 µM (active); in [11], 0.0524 µM (active); in [12], 0.0953 µM (active). For the same compound, the GI50 was 0.0798 µM (active) in assay [13]; 0.00904 µM (active) in assay [14]; 0.0448 µM (active) in assay [15]; 0.145 µM (active) in [16]; 0.0461 µM (active) in [17]; > 2.99 µM (inactive) in assay [18]. Besides, the GI50 in assay [19] was 0.538 µM (active); in assay [20], 0.053 µM (active).

Take `CCCn1c(SC)nc(COC(=O)NC)c1COC(=O)NC`: the GI50 is > 100 µM (inactive) in assay [1]; > 100 µM (inactive) in assay [2]; > 100 µM (inactive) in assay [3]; > 100 µM (inactive) in assay [4]; > 100 µM in [5]; > 100 µM (inactive) in assay [6]. In addition, the GI50 in assay [7], in assay [8], in assay [9], in [10], in [11] and in assay [12] was > 100 µM (inactive) throughout. Moreover, the GI50 in assay [13], in assay [14], in [15], in assay [16], in assay [17] and in assay [18] was > 100 µM (inactive) throughout. In addition, the GI50 in assay [19] and in assay [20] was > 100 µM (inactive) in each case.

In the case of `COc1ccc(C[C@@H]2NC[C@@H](O)[C@@H]2OC(C)=O)cc1`, the GI50 is 0.011 µM (active) in assay [1]; 0.0329 µM (active) in assay [2]; 0.0251 µM (active) in [3]; 0.0475 µM (active) in [4]; 0.0171 µM in [5]; 0.0197 µM (active) in assay [6]. In addition, the GI50 in assay [7] was 0.0284 µM (active); in assay [8] it was 0.0196 µM (active); in assay [9], 0.0168 µM (active); in assay [10] it was 0.0358 µM (active); in [11], 0.0142 µM (active); in assay [12] it was 0.0198 µM (active). Moreover, the GI50 in assay [13] was 0.0189 µM (active); in [14] it was 0.0296 µM (active); in assay [15], 0.039 µM (active); in [16] it was 0.0228 µM (active); in [17], 0.0227 µM (active); in [18], 0.0312 µM (active). For the same compound, the values for the GI50 in [19] and in [20] were 0.0228 µM (active) and 0.015 µM (active), respectively.

`O=C(O)C(O)C(O)C(O)C(=O)CO` (stereo not given): the GI50 is > 100 µM (inactive) in assay [1]; > 100 µM (inactive) in [2]; > 100 µM (inactive) in assay [3]; > 100 µM (inactive) in [4]; > 100 µM in [5]; > 100 µM (inactive) in assay [6]. The GI50 in [7], in assay [8], in [9], in assay [10], in assay [11] and in assay [12] was > 100 µM (inactive) throughout. For the same compound, the GI50 in assay [13], in assay [14], in assay [15], in assay [16], in [17] and in assay [18] was > 100 µM (inactive) in each case. Further, the GI50 in assay [19] and in assay [20] was > 100 µM (inactive) in each case.
